Results published in patent publication US7981875B2, “2″ oxo-voruscharin and derivatives thereof” (priority 2002, dated 2011).

Test system: C32 (melanoma cancer)
Test: Sub-cutaneous melanoma cancer model
Assay type: in vivo, mice
Settings: for T/C index: three times a week
Description: Three types of results were obtained with in vivo anti-tumor pharmacology: 1) the cumulative toxicity of chemotherapeutic administrations through recording the weights of the tumor-bearing mice during treatment, 2) the actual anti-tumor effect exerted at tumor growth level. If the tumor models are grafted subcutaneously (s.c.), tumor size is measured three times a week by means of a caliper and expressed as an area (mm^2) by multiplying together the two largest perpendicular diameters, and 3) the gain in survival for the animals treated, which is evaluated by means of the T/C index. This index is the ratio between the median survival time of the group of treated animals (T) and that of the control group. The drug is considered to be active if the T/C value is above 130% (P<0.05), and toxic for a value lower than 70%.
The antitumoral activity of compound B was evaluated in different xenografted models: sub-cutanous model: MCF-7-TD5 (breast cancer) and C32 (melanoma cancer) and orthotopic model: A549 (lung cancer).
Experimental melanomas were set up in mice by painting their skins with a carcinogen. These experimental melanomas display certain morphological characteristics close to those of human melanomas but are less aggressive biologically. Compound B was assayed at DMT/4 (20 mg/kg), DMT/8 (10 mg/kg) and DMT/16 (5 mg/kg) three times a week. […] Indeed the T/C index values measured were respectively 95%, 107% and 81%.

SMILES: CC1CC2(NC(=O)CS2)C2(O)OC3CC4(CO)C(CCC5C4CCC4(C)C(C6=CC(=O)OC6)CCC54O)CC3OC2O1 (centres unmarked) [Compound B]
- T/C index (C32, 21×5 mg/kg): 81%
- T/C index (C32, 25×20 mg/kg): 95%
- T/C index (C32, 28×10 mg/kg): 107%
- tumor area (C32-tumor bearing mice, most important effect at 10 mg/kg): decreased the tumor area
- weight of C32-tumor bearing mice (toxic side effects) (constant administration, 20, 10 and 5 mg/kg): did not loose any significant weight
